In ChEMBL document CHEMBL1157259, “Cytotoxic and other compounds from Didymochlaena truncatula from the Madagascar rain forest” (J Nat Prod, 2006):
Converted amounts (≈) assume the structure as drawn.

Test system: A2780
Test: Cytotoxicity against human A2780 cells by clonogenic assay
Format: functional, cell-based

Row | Structure (SMILES) | IC50 [µg/mL]
1 | CC[C@@]1(O)C(=O)OCc2c1cc1n(c2=O)Cc2cc3c(OC)cccc3nc2-1 | 0.02 (≈ 0.0529 µM)
2 | CC[C@@]1(O)C(=O)OCc2c1cc1n(c2=O)Cc2cc3ccccc3nc2-1 [CAMPTOTHECIN] | 0.07 (≈ 0.201 µM)
3 | COc1cc(O)cc(/C=C/c2ccccc2)c1 [PINOSYLVIN METHYL ETHER] | 10 (≈ 44.2 µM)
